Test results: patent publication EP4818154A1, “EP4 AGONIST” (ONO Pharmaceutical Co., Ltd., priority 2023, dated 2025)

Experiments:
[1] = tested on: rat circulatory organ (blood pressure and heart rate); test: Rat po circulatory organ evaluation test (blood pressure and heart rate); conditions: for safety margin (dose basis): rat no observed effect level compared with the effective amount in the mouse model of DSS-induced colitis; for no observed effect level on the rat circulatory organ (blood pressure and heart rate): single oral administration, unrestrained, awake rats
Description: Regarding an action on the rat circulatory organ under unrestrained conditions and awakening, the test substance was orally administered once to Crl:CD (SD) male rats (4 animals/group) implanted with a telemetry transmitter (HD-S10, Data Sciences International, Inc.) or catheterized in the left carotid artery, and blood pressure (systolic, diastolic, and mean blood pressure) and heart rate were continuously measured.

DSS colitis mouse model = test: Dextran sodium sulfate (DSS)-induced ulcerative colitis mouse model; format: in vivo, C57BL/6 mice; conditions: oral once a day Day 0 to Day 6, 2% DSS drinking water
Description: Adult C57BL/6 mice were used in this assay. The day on which 2% DSS drinking water started was defined as Day 0. A DSS solution was placed in a transparent plastic water bottle, and the mice were allowed to freely drink from Day 0 to Day 7 via a metal nozzle to induce ulcerative colitis. The test substance was orally administered once a day at a dose of 10 mL/kg for 7 days from Day 0 to Day 6. Stool conditions were observed every day from Day 0 to Day 7, and a disease activity index (DAI) was evaluated according to a reference score (Diarrhea score 0: normal stool, 1: loose stool, 2: diarrhea stool, 3: watery stool. Bloody stool score 0: normal stool, 1: brown mild bloody stool, 2: reddish color in stool, 3: melena); DAI score = diarrhea score + bloody stool score […].
The compounds of the present disclosure were tested in this assay. Efficacy in this model is evidenced by a decrease in the DAI score when compared to that of vehicle-treated animals (control group).

[2] = tested on: monkey circulatory organ (blood pressure and heart rate); test: Monkey po telemetry test (blood pressure and heart rate); conditions: for safety margin (dose basis): monkey no observed effect level compared with the effective amount in the mouse model of DSS-induced colitis; for no observed effect level on the monkey circulatory organ (blood pressure and heart rate): single oral administration, unrestrained, awake cynomolgus monkeys
Description: Regarding an action on the monkey circulatory organ under unrestrained conditions and awakening, the test substance was orally administered once to male cynomolgus monkeys (2 animals/dose) implanted with a telemetry transmitter (M11, Data Sciences International, Inc.), and blood pressure (systolic, diastolic, and mean blood pressure) and heart rate were continuously measured. The evaluation time point was set to before administration, 0.5, 1, 2, 4, 8, 10, 12, 16, or 24 hours after administration, and the average value for 1 minute at the evaluation time point was analyzed.

| SMILES | safety margin (dose basis) [1] | no observed effect level on the rat circulatory organ (blood pressure and heart rate) [1] | suppression of the control group score (DAI score) (DSS colitis mouse model; 0.3 mpk) | safety margin (dose basis) [2] | no observed effect level on the monkey circulatory organ (blood pressure and heart rate) [2] | suppression of the control group score (DAI score) (DSS colitis mouse model; 3 mpk) | suppression of the control group score (DAI score) (DSS colitis mouse model; 1 mpk) |
| --- | --- | --- | --- | --- | --- | --- | --- |
| CN(CCCCC[C@H](O)/C=C/[C@H]1CCC(=O)N1CCSc1nc(C(=O)NCCS(=O)(=O)O)cs1)c1ccccc1 [2-({[2-({2-[(2R)-2-{(1E,3S)-3-Hydroxy-8-[methyl(phenyl)amino]-1-octen-1-yl}-5-oxo-1-pyrrolidinyl]ethyl}thio)-1,3-thiazol-4-yl]carbonyl}amino)ethanesulfonic acid] | 100 times | 30 mg/kg | 50% | 10 times | 3 mg/kg | – | – |
| O=C(CCCSCCN1C(=O)CC[C@@H]1/C=C/[C@@H](O)Cc1cccc(NC(=O)c2ccccc2)c1)NCCS(=O)(=O)O [2-{[4-({2-[(2R)-2-{(1E,3S)-4-[3-(Benzoylamino)phenyl]-3-hydroxy-1-buten-1-yl}-5-oxo-1-pyrrolidinyl]ethyl}thio)butanoyl]amino}ethanesulfonic acid] | 10 times | 30 mg/kg | – | – | – | 50% | – |
| O=C(O)c1csc(SCCN2C(=O)CC[C@@H]2/C=C/[C@@H](O)CCCCCSc2ccccn2)n1 [Example 1, 2-[(2-{(2R)-2-[(1E,3S)-3-Hydroxy-8-(2-pyridinylthio)-1-octen-1-yl]-5-oxo-1-pyrrolidinyl}ethyl)thio]-1,3-thiazole-4-carboxylic acid] | – | – | 50% | – | – | – | – |
| CN(CCCCC[C@H](O)/C=C/[C@H]1CCC(=O)N1CCSc1nc(C(=O)O)cs1)c1ccccc1 [Example 2, 2-({2-[(2R)-2-{(1E,3S)-3-Hydroxy-8-[methyl(phenyl)amino]-1-octen-1-yl}-5-oxo-1-pyrrolidinyl]ethyl}thio)-1,3-thiazole-4-carboxylic acid] | – | – | 50% | – | – | – | – |
| O=C(O)CCCSCCN1C(=O)CC[C@@H]1/C=C/[C@@H](O)Cc1cccc(NC(=O)c2ccccc2)c1 [Example 10, 4-({2-[(2R)-2-{(1E,3S)-4-[3-(Benzoylamino)phenyl]-3-hydroxy-1-buten-1-yl}-5-oxo-1-pyrrolidinyl]ethyl}thio)butanoic acid] | – | – | – | – | – | – | 50% |
| O=C(NCCS(=O)(=O)O)c1csc(SCCN2C(=O)CC[C@@H]2/C=C/[C@@H](O)CCCCCSc2ccccn2)n1 [Example 11, 2-[({2-[(2-{(2R)-2-[(1E,3S)-3-Hydroxy-8-(2-pyridinylthio)-1-octen-1-yl]-5-oxo-1-pyrrolidinyl}ethyl)thio]-1,3-thiazol-4-yl}carbonyl)amino]ethanesulfonic acid] | 100 times | 30 mg/kg | 50% | 1 times | 0.3 mg/kg | – | – |
| COc1nccnc1SCCCCC[C@H](O)/C=C/[C@H]1CCC(=O)N1CCSc1nc(C(=O)NCCS(=O)(=O)O)cs1 [Example 12] | 10 times | 30 mg/kg | – | 10 times | 30 mg/kg | 50% | – |
